Test results reported in the supplement of paper PMC10331698.
± gives the standard deviation of the averaged measurements.

How the values were obtained:
Experiment in all cases: level (log10 ratio to DMSO vehicle control); higher = higher biomarker level / cell amount than vehicle control
Settings in all cases: in DMSO
[1] = compound: OCCC(F)(F)C(F)(F)C(F)(F)C(F)(F)C(F)(F)C(F)(F)F [6:2 Fluorotelomer alcohol]
Method: (§1)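 BioMAP Diversity Plus panel of 12 human primary cell co-culture systems (3C, 4H, LPS, SAg, BT, BF4T, BE3C, CASM3C, HDF3CGF, KF3CT, MyoF, Mphg). Compounds were added 1 h before stimulation and left for 24 h (MyoF 48 h; BT 72 h for soluble read-outs or 6 d for IgG). Biomarkers were read by ELISA, cytotoxicity by SRB, PBMC viability and proliferation by Alamar Blue. Each well value was divided by the mean of 8 DMSO control wells on the same plate and log10 transformed; duplicate blinded samples were tested at 4 concentrations.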

[2] = compound: NCC(F)(F)C(F)(F)C(F)(F)C(F)(F)C(F)(F)C(F)(F)C(F)(F)F [1H,1H-Perfluorooctylamine]
Method: as §1

[3] = compound: COC(=O)CCC(F)(F)C(F)(F)C(F)(F)C(F)(F)F [Methyl 2H,2H,3H,3H-perfluoroheptanoate]
Method: as §1

[4] = compound: O=C(O)C(F)(F)C(F)(F)OC(F)(F)F [Perfluoro-3-methoxypropanoic acid]
Method: as §1

[5] = compound: FC(F)(F)C(F)(F)C(F)(F)C(F)(F)C(F)(F)C(F)(F)C(F)(F)C(F)(F)CCS [2-(Perfluorooctyl)ethanthiol]
Method: as §1

[6] = compound: O=C(O)C(F)(F)C(F)(F)C(F)(F)OC(F)(C(F)(F)F)C(F)(F)F [Perfluoro-4-isopropoxybutanoic acid]
Method: as §1

Perfluorobutanoic acid = compound: O=C(O)C(F)(F)C(F)(F)C(F)(F)F [Perfluorobutanoic acid]
Method: as §1

Test System | level (log10) ([1]; 6700 nM) | level (log10) ([1]; 20000 nM) | level (log10) ([2]; 6700 nM) | level (log10) ([2]; 20000 nM) | level (log10) ([2]; 60000 nM) | level (log10) ([3]; 6700 nM) | level (log10) ([3]; 20000 nM) | level (log10) ([3]; 60000 nM) | level (log10) ([4]; 6700 nM) | level (log10) ([4]; 20000 nM) | level (log10) ([4]; 60000 nM) | level (log10) ([5]; 6700 nM) | level (log10) ([5]; 20000 nM) | level (log10) ([6]; 6700 nM) | level (log10) ([6]; 20000 nM) | level (log10) ([6]; 60000 nM) | level (log10) (Perfluorobutanoic acid; 6700 nM) | level (log10) (Perfluorobutanoic acid; 20000 nM) | level (log10) (Perfluorobutanoic acid; 60000 nM)
BF4T:MMP-1 | 0.0065 ± 0.005 | 0.014 ± 0.021 | 0.0115 ± 0.0092 | 0.0025 ± 0.005 | 0.011 ± 0.0085 | 0.0015 ± 0.013 | -0.007 ± 0.0028 | 0.014 ± 0.021 | 0.0025 ± 0.0021 | 0.008 ± 0.0042 | 0.0205 ± 0.023 | 0.003 ± 0.0085 | 0.01 ± 0.0099 | -0.0035 ± 0.022 | 0.0155 ± 0.026 | 0.027 ± 0.03 | 0.0045 ± 0.022 | -0.01 ± 0.017 | 0.0075 ± 0.015
BT:sIL-17A | 0.0375 ± 0.015 | -0.0005 ± 0.11 | 0.0455 ± 0.064 | -0.035 ± 0.038 | -0.184 ± 0.0071 | -0.0765 ± 0.18 | 0.001 ± 0.11 | -0.0075 ± 0.064 | 0.035 ± 0.27 | -0.0495 ± 0.076 | 0.0575 ± 0.12 | -0.0475 ± 0.022 | -0.05 ± 0.042 | 0.027 ± 0.05 | 0.052 ± 0.096 | -0.0105 ± 0.21 | 0.0335 ± 0.018 | -0.0265 ± 0.025 | -0.019 ± 0.021
BE3C:CXCL8/IL-8 | 0.01 ± 0.048 | -0.0085 ± 0.021 | -0.017 ± 0.023 | -0.0075 ± 0.025 | -0.005 ± 0.013 | 0.032 ± 0.044 | 0.002 ± 0.057 | 0.0295 ± 0.053 | -0.0445 ± 0.0064 | -0.031 ± 0.0028 | -0.007 ± 0.03 | 0.04 ± 0.073 | 0.0135 ± 0.093 | 0.0175 ± 0.025 | 0.0185 ± 0.019 | 0.015 ± 0.038 | 0.0155 ± 0.022 | 0.01 ± 0.014 | 0.0155 ± 0.005
BE3C:HLA-DR | 0.003 | 0.005 ± 0.02 | -0.001 | -0.0145 ± 0.011 | -0.0065 ± 0.0092 | -0.016 | 0.004 ± 0.0028 | -0.0235 ± 0.03 | -0.014 ± 0.0014 | 0.003 ± 0.023 | -0.0035 ± 0.033 | -0.0075 ± 0.0035 | -0.0135 ± 0.0092 | -0.0045 ± 0.025 | -0.0045 ± 0.016 | 0.0105 ± 0.011 | -0.0085 ± 0.018 | 0.007 ± 0.0014 | -0.027 ± 0.013
4H:CD87/uPAR | -0.002 ± 0.033 | 0.001 ± 0.033 | -0.0235 ± 0.023 | -0.0215 ± 0.033 | 0.003 ± 0.014 | 0.0005 ± 0.019 | 0.021 ± 0.042 | 0.0065 ± 0.033 | -0.031 ± 0.044 | -0.0165 ± 0.047 | -0.0045 ± 0.029 | -0.0055 ± 0.0021 | -0.0165 ± 0.0021 | -0.004 ± 0.03 | -0.013 ± 0.0028 | -0.0075 ± 0.0035 | -0.013 ± 0.0071 | -0.0125 ± 0.029 | -0.041 ± 0.0071
BT:sIL-17F | -0.087 ± 0.17 | -0.146 ± 0.18 | -0.033 ± 0.0071 | -0.0475 ± 0.0064 | -0.089 ± 0.017 | 0.014 ± 0.12 | -0.0295 ± 0.052 | -0.024 ± 0.068 | -0.161 ± 0.067 | -0.033 ± 0.052 | -0.0115 ± 0.011 | -0.068 ± 0.055 | 0.092 ± 0.062 | -0.0935 ± 0.005 | -0.092 ± 0.04 | -0.063 ± 0.045 | 0.081 ± 0.035 | 0.065 ± 0.0014 | -0.035 ± 0.024
4H:CD106/VCAM-1 | 0 ± 0.0057 | -0.002 ± 0.0057 | 0 ± 0.023 | -0.041 ± 0.027 | -0.034 ± 0.0085 | -0.021 ± 0.0071 | 0.01 ± 0.035 | 0.011 ± 0.013 | 0.0005 ± 0.016 | -0.005 ± 0.0085 | 0.007 ± 0.0057 | -0.0055 ± 0.005 | -0.0025 ± 0.012 | 0.0075 ± 0.011 | -0.019 ± 0.0028 | -0.011 ± 0.025 | -0.0165 ± 0.0092 | -0.021 ± 0.0042 | -0.001 ± 0.013
4H:SRB | -0.011 ± 0.024 | -0.006 ± 0.024 | -0.003 ± 0.0042 | 0.0005 ± 0.011 | 0.003 ± 0.042 | 0.0075 ± 0.022 | 0.006 ± 0.0057 | -0.017 ± 0.0099 | -0.013 ± 0.0071 | -0.004 ± 0.0071 | 0.0015 ± 0.033 | 0.0085 ± 0.011 | -0.003 ± 0.0057 | -0.0085 ± 0.021 | -0.008 ± 0.023 | -0.0275 ± 0.019 | -0.02 ± 0.044 | -0.0115 ± 0.0035 | -0.007 ± 0.024
LPS:CD106/VCAM-1 | -0.0045 ± 0.0078 | -0.0025 ± 0.011 | -0.006 ± 0.023 | -0.015 ± 0.013 | -0.0135 ± 0.0092 | -0.0265 ± 0.011 | -0.0265 ± 0.00071 | -0.0085 ± 0.021 | 0.0065 ± 0.013 | -0.0065 ± 0.00071 | -0.01 ± 0.0028 | -0.007 ± 0.04 | -0.0225 ± 0.005 | -0.0015 ± 0.016 | -0.0075 ± 0.0078 | -0.0095 ± 0.028 | -0.0095 ± 0.0021 | -0.0075 ± 0.0021 | -0.027 ± 0.033
SAg:CD38 | 0.0115 ± 0.026 | -0.008 ± 0.0071 | 0.0005 ± 0.012 | -0.0155 ± 0.00071 | 0.0065 ± 0.005 | -0.018 ± 0.017 | -0.0015 ± 0.018 | -0.009 ± 0.0028 | -0.007 ± 0.0042 | 0.003 ± 0.0085 | -0.0005 ± 0.012 | -0.036 ± 0.057 | -0.0245 ± 0.042 | -0.003 ± 0.014 | -0.0015 ± 0.0035 | -0.017 ± 0.014 | -0.005 | -0.013 ± 0.0085 | -0.012 ± 0.0099
LPS:CD141/Thrombomodulin | 0.002 ± 0.024 | 0.013 ± 0.0042 | -0.0055 ± 0.025 | -0.0355 ± 0.021 | -0.026 ± 0.034 | -0.0375 ± 0.037 | -0.0325 ± 0.0092 | -0.0255 ± 0.0078 | 0.0175 ± 0.036 | 0.0075 ± 0.022 | 0.0255 ± 0.028 | 0.0055 ± 0.0064 | -0.0385 ± 0.028 | 0.0205 ± 0.012 | 0.016 ± 0.013 | 0.0225 ± 0.0035 | -0.0035 ± 0.046 | -0.0295 ± 0.05 | 0.008 ± 0.054
LPS:sTNF-alpha | -0.0335 ± 0.17 | -0.016 ± 0.16 | 0.018 ± 0.011 | 0.0125 ± 0.029 | -0.0015 ± 0.028 | 0.0245 ± 0.005 | -0.007 ± 0.011 | -0.025 ± 0.033 | 0.036 ± 0.011 | 0.036 ± 0.045 | 0.06 ± 0.059 | 0.052 ± 0.013 | 0.098 ± 0.0071 | -0.0215 ± 0.15 | -0.012 ± 0.13 | -0.031 ± 0.1 | -0.0195 ± 0.012 | -0.0055 ± 0.0078 | -0.041 ± 0.034
SAg:CD69 | 0.012 ± 0.025 | -0.012 ± 0.016 | -0.0095 ± 0.0092 | 0.0005 ± 0.0035 | 0.006 ± 0.016 | -0.0375 ± 0.035 | -0.0225 ± 0.019 | -0.0085 ± 0.05 | 0.0005 ± 0.00071 | 0.0225 ± 0.011 | -0.0005 ± 0.018 | -0.0165 ± 0.0092 | -0.035 ± 0.0014 | -0.0085 ± 0.00071 | -0.0055 ± 0.005 | -0.016 ± 0.0042 | -0.01 ± 0.014 | -0.0095 ± 0.03 | 0.018 ± 0.047
SAg:CD62E/E-Selectin | -0.0015 ± 0.0092 | 0.002 ± 0.027 | -0.0135 ± 0.028 | -0.0055 ± 0.039 | 0 ± 0.011 | -0.014 ± 0.014 | -0.03 ± 0.0071 | 0.007 ± 0.0057 | 0.004 ± 0.0099 | -0.01 ± 0.018 | -0.016 ± 0.018 | -0.0115 ± 0.0064 | -0.0015 ± 0.022 | -0.0025 ± 0.0021 | 0.0125 ± 0.015 | -0.01 ± 0.023 | -0.026 ± 0.0042 | -0.024 ± 0.0057 | -0.024 ± 0.013
BF4T:CCL2/MCP-1 | 0.024 ± 0.033 | 0.02 ± 0.014 | 0.005 ± 0.02 | -0.013 ± 0.0071 | -0.009 ± 0.033 | -0.0105 ± 0.019 | -0.0245 ± 0.039 | -0.002 ± 0.0085 | 0.0075 ± 0.026 | 0.0115 ± 0.043 | 0.0535 ± 0.054 | -0.0265 ± 0.029 | -0.031 ± 0.03 | 0.0235 ± 0.046 | 0.0325 ± 0.084 | 0.045 ± 0.078 | 0.004 ± 0.038 | 0.017 ± 0.0057 | 0.006 ± 0.0071
